Reference: patent US12139520B2 (priority 2020, dated 2024)
Bridge positions count the residues as written; N and C are the ends. Square brackets hold non-standard residues; d marks the D form. Peptide text beside a SMILES is read from it. Hyp = O=C(O)[C@@H]1C[C@@H](O)CN1

Tests used:
hAM1 receptor = hAM1 receptor (Homo sapiens, UniProt O60895+Q16602); assay: cAMP assay for in vitro receptor activation, hAM1-R; assay type: cell-based; conditions: cAMP assay, hAM1 receptor; read-out: hAM1R EC50
Summary of the method: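 Read-out is intracellular cAMP as a measure of receptor activation. Cells stably overexpressing hAM1 were subcloned to a monoclonal line, then thawed and seeded at 8000 cells/well in DPBS with 0.05% casein and the phosphodiesterase inhibitor IBMX at 0.5 mM.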

hAMY3 receptor = molecular target: T1, hAMY3 receptor (Homo sapiens, UniProt O60896+P30988); assay: cAMP assay for in vitro receptor activation, hAMY3-R; assay type: cell-based; conditions: cAMP assay, hAMY3 receptor; read-out: hAMY3R EC50
T1 sequence (P30988 25-474): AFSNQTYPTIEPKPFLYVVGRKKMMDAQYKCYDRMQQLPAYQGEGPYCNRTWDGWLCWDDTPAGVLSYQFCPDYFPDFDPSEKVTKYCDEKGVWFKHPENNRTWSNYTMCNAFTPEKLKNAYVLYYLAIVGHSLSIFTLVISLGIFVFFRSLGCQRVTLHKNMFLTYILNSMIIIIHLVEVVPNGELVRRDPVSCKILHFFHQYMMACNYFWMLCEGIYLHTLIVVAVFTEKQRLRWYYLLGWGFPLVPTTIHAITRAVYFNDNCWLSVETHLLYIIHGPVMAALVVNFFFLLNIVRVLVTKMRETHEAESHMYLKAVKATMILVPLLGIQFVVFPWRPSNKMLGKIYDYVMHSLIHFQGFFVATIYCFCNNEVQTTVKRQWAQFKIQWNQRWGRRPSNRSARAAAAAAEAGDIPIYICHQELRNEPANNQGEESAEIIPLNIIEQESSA
T1 sequence (O60896 24-148 partner): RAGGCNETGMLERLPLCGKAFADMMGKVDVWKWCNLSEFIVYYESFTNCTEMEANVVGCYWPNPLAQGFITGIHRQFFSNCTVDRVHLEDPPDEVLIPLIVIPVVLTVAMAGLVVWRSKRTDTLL
Summary of the method: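 Receptor activation was measured as cAMP accumulation in a monoclonal cell line stably overexpressing hAMY3. Stimulation with graded doses lasted 30 min at room temperature in the presence of 0.5 mM IBMX, with human amylin as positive control.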

Chain of hAM1 receptor (Q16602 23-461): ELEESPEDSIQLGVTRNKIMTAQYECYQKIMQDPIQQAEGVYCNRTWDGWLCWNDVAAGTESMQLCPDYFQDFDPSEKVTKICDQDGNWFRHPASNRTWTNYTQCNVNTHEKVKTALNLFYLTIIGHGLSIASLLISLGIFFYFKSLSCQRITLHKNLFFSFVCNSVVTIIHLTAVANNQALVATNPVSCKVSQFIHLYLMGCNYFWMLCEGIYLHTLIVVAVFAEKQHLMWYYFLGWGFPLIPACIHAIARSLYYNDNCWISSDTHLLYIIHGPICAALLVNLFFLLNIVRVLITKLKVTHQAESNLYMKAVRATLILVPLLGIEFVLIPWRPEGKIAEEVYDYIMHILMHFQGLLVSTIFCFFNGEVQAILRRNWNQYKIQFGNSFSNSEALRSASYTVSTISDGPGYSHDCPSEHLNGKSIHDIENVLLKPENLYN
Chain of hAM1 receptor (O60895 43-175 partner): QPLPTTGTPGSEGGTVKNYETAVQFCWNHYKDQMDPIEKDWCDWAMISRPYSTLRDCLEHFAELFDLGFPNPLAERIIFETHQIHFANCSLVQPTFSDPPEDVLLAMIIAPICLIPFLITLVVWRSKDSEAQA

EC50 (hAM1 receptor) [nM]	EC50 (hAMY3 receptor) [nM]	Structure (SMILES)
> 5000	0.007	CC[C@H](C)[C@H](NC(=O)[C@H](CCC(N)=O)NC(=O)[C@H](CC(=O)O)NC(=O)[C@H](C)NC(=O)[C@H](CC(C)C)NC(=O)[C@H](CCCNC(=N)N)NC(=O)[C@H](C)NC(=O)[C@@H](NC(=O)[C@@H](NC(=O)[C@@H]1CSSC[C@H](NC(=O)[C@@H](N)CCCCN)C(=O)N[C@@H](CC(N)=O)C(=O)N[C@@H]([C@@H](C)O)C(=O)N[C@@H](CO)C(=O)N[C@@H]([C@@H](C)O)C(=O)N1)[C@@H](C)O)C(C)C)C(=O)N[C@H](C(=O)N[C@@H](CCC(N)=O)C(=O)N[C@@H](Cc1ccccc1)C(=O)N[C@@H](CO)C(=O)N[C@@H](CC(=O)O)C(=O)N[C@@H](CCCCN)C(=O)N[C@@H](CC(=O)O)C(=O)N[C@@H](CCCCN)C(=O)N[C@@H](C)C(=O)N[C@@H](CC(N)=O)C(=O)N[C@H](C(=O)N[C@@H](CO)C(=O)N1CCC[C@H]1C(=O)N1CCC[C@H]1C(=O)N[C@H](C(=O)N[C@@H](CCC(=O)O)C(=O)N[C@H](C(=O)NCC(=O)N1CCC[C@H]1C(=O)N[C@@H](CC(N)=O)C(=O)N[C@@H](CO)C(=O)N1C[C@H](O)C[C@H]1C(N)=O)C(C)C)[C@@H](C)O)C(C)C)[C@@H](C)O [compound 15] (H-KCNTSTCTVARLADQITQFSDKDKANVSPPTEVGPNS[Hyp]-NH2; disulfide 2-7; N-terminus assumed)
> 5000	0.011	CC[C@H](C)[C@H](NC(=O)[C@H](CCC(N)=O)NC(=O)[C@H](Cc1c[nH]cn1)NC(=O)[C@H](C)NC(=O)[C@H](CC(C)C)NC(=O)[C@H](CCCNC(=N)N)NC(=O)[C@H](CCC(N)=O)NC(=O)[C@@H](NC(=O)[C@@H](NC(=O)[C@@H]1CSSC[C@H](NC(=O)[C@@H](N)CCCCN)C(=O)N[C@@H](CC(N)=O)C(=O)N[C@@H]([C@@H](C)O)C(=O)N[C@@H](C)C(=O)N[C@@H]([C@@H](C)O)C(=O)N1)[C@@H](C)O)C(C)C)C(=O)N[C@@H](Cc1ccc(O)cc1)C(=O)N[C@@H](CCC(N)=O)C(=O)N[C@@H](Cc1ccccc1)C(=O)N[C@H](C(=O)N[C@@H](CC(=O)O)C(=O)N[C@@H](CCCCN)C(=O)N[C@@H](CC(=O)O)C(=O)N[C@@H](CCCCN)C(=O)N[C@@H](CC(=O)O)C(=O)N[C@@H](CC(N)=O)C(=O)N[C@H](C(=O)N[C@@H](C)C(=O)N[C@@H](C)C(=O)N1CCC[C@H]1C(=O)N[C@H](C(=O)N[C@@H](CC(N)=O)C(=O)N[C@H](C(=O)NCC(=O)N[C@@H](CO)C(=O)N[C@@H](CC(N)=O)C(=O)NCC(=O)N1C[C@H](O)C[C@H]1C(N)=O)C(C)C)[C@@H](C)O)C(C)C)[C@@H](C)O [compound 53] (H-KCNTATCTVQRLAHQIYQFTDKDKDNVAAPTNVGSNG[Hyp]-NH2; disulfide 2-7; N-terminus assumed)
> 5000	0.01	CC[C@H](C)[C@H](NC(=O)[C@H](CCC(N)=O)NC(=O)[C@H](CCC(=O)O)NC(=O)[C@H](C)NC(=O)[C@H](CC(C)C)NC(=O)[C@H](CCCNC(=N)N)NC(=O)[C@H](CCC(N)=O)NC(=O)[C@@H](NC(=O)[C@@H](NC(=O)[C@@H]1CSSC[C@H](NC(=O)[C@@H](N)CCCCN)C(=O)N[C@@H](CC(N)=O)C(=O)N[C@@H]([C@@H](C)O)C(=O)N[C@@H](C)C(=O)N[C@@H]([C@@H](C)O)C(=O)N1)[C@@H](C)O)C(C)C)C(=O)N[C@@H](Cc1ccc(O)cc1)C(=O)N[C@@H](CCC(N)=O)C(=O)N[C@@H](Cc1ccccc1)C(=O)N[C@H](C(=O)N[C@@H](CC(=O)O)C(=O)N[C@@H](CCCCN)C(=O)N[C@@H](CC(=O)O)C(=O)N[C@@H](CCCCN)C(=O)N[C@@H](CC(=O)O)C(=O)N[C@@H](CC(N)=O)C(=O)N[C@H](C(=O)N[C@@H](C)C(=O)N1CCC[C@H]1C(=O)N1CCC[C@H]1C(=O)N[C@@H](Cc1ccc(O)cc1)C(=O)N[C@@H](CC(N)=O)C(=O)N[C@@H](CCC(=O)O)C(=O)NCC(=O)N[C@@H](CO)C(=O)N[C@@H](CC(N)=O)C(=O)NCC(=O)N1C[C@H](O)C[C@H]1C(N)=O)C(C)C)[C@@H](C)O [compound 44] (H-KCNTATCTVQRLAEQIYQFTDKDKDNVAPPYNEGSNG[Hyp]-NH2; disulfide 2-7; N-terminus assumed)
